This is an account of results in publication PMC3685178 (Chemical communications (Cambridge, England), 2013).

This assay deals with MCF-7 tumour cells. Type of assay: cell-based, human. The note with it: MCF-7, 50 nM, 48 h exposure; cells larger in size, characteristic of G2-M arrest.

Structures are written as SMILES.

Regarding `CC(=O)O[C@H]1C(=O)[C@@]2(C)[C@H]([C@H](OC(=O)c3ccccc3)[C@]3(O)C[C@H](OC(=O)[C@H](O)[C@@H](NC(=O)c4ccccc4)c4ccccc4)C(C)=C1C3(C)C)[C@]1(OC(C)=O)CO[C@@H]1C[C@@H]2O` [PTX, paclitaxel], the “cell populations in live/dead assay” value is on record as “significantly reduced”.
